The target of the assay is T1, HCV polymerase (Hepatitis C virus genotype 1b, UniProt P26663).
T1 construct: a region encoding NS5B (J Virol 1991 March, 65(3), 1105-13, 544 amino acids after deletion of 47 amino acids on the C-terminal); 6xHis (C); made in house; host or cells: Escherichia coli
Put plainly: biochemical. More on the design: species or system HCV BK strain. Put shortly:
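Recombinant HCV BK-strain NS5B (C-terminal 47 aa deleted, His6-tagged, E. coli), 0.5 μg/ml, run with 5 μg/ml in vitro-transcribed RNA template (polyU/3′X), ATP/GTP/CTP 50 μM, UTP 2 μM plus [3H]UTP, pH 7.5, 25° C, 90 min. TCA-precipitated RNA counted by scintillation; IC50 from activity with vs without compound.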

Counter-ions that a name gives are not always drawn.

T1 sequence (P26663 2420-2963): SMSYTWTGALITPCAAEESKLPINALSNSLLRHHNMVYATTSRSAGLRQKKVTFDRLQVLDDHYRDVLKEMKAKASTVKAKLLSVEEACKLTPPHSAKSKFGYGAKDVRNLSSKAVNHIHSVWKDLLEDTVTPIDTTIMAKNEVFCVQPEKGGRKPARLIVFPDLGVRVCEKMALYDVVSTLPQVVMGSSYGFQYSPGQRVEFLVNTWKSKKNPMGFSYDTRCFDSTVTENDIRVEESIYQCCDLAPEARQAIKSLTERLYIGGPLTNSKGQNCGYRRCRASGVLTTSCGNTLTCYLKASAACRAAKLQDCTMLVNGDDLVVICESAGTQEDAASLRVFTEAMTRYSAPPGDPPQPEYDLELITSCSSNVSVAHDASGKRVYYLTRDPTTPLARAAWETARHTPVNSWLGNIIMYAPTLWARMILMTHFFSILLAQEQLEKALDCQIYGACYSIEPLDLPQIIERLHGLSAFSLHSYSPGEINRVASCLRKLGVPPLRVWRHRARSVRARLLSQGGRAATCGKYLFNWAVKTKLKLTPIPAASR

On to `COc1ccc2c(c1)OCCn1c-2c(C2CCCCC2)c2ccc(C(=O)N[C@@H](Cc3ccc(OCc4ccccc4)cc3)c3noc(C)n3)cc21` [Example 2-542, N—[(S)-2-(4-benzyloxyphenyl)-1-(5-methyl-1,2,4-oxadiazol-3-yl)ethyl]-12-cyclohexyl-3-methoxy-6,7-dihydro-5-oxa-7a-azadibenzo[a,e]azulene-9-carboxamide], for which the IC50 is below 100 nM.
Then `COc1ccc2c(c1)N(CCN1CCCCC1)CCn1c-2c(C2CCCCC2)c2ccc(C(=O)O)cc21` [Example 1-74, 13-cyclohexyl-3-methoxy-5-[2-(piperidin-1-yl)ethyl]-6,7-dihydro-5H-benzo[5,6][1,4]diazepino[7,1-a]indole-10-carboxylic acid dihydrochloride], with below 100 nM.
Then `CN(CC(=O)N1CCCCC1)c1cccc2c1OCCn1c-2c(C2CCCCC2)c2ccc(C(=O)O)cc21` [Example 2-486, 12-cyclohexyl-4-{N-methyl-N-[2-oxo-2-(piperidin-1-yl)ethyl]amino}-6,7-dihydro-5-oxa-7a-azadibenzo[a,e]azulene-9-carboxylic acid], with below 100 nM; and `COC(=O)N1CCN(CCN2CCn3c(c(C4CCCCC4)c4ccc(C(=O)O)cc43)-c3ccccc32)CC1` [Example 1-104, 13-cyclohexyl-5-[2-(4-methoxycarbonylpiperazin-1-yl)ethyl]-6,7-dihydro-5H-benzo[5,6][1,4]diazepino[7,1-a]indole-10-carboxylic acid dihydrochloride], with below 100 nM; and `CC(C)c1ccc2c(c1)N(CCN1CCCCC1)CCn1c-2c(C2CCCCC2)c2ccc(C(=O)O)cc21` [Example 1-296, 13-cyclohexyl-3-isopropyl-5-[2-(piperidin-1-yl)ethyl]-6,7-dihydro-5H-benzo[5,6][1,4]diazepino[7,1-a]indole-10-carboxylic acid dihydrochloride], with below 100 nM.
To `O=C(O)c1ccc2c(C3CCCCC3)c3n(c2c1)CCOc1c(OCCN2CCOCC2)cccc1-3` [Example 2-462, 12-cyclohexyl-4-[2-(morpholin-4-yl)ethoxy]-6,7-dihydro-5-oxa-7a-azadibenzo[a,e]azulene-9-carboxylic acid monohydrochloride] belongs below 100 nM.
In turn, `CN(C)CC(C)(NC(=O)c1ccc2c(C3CCCCC3)c3n(c2c1)CCOc1ccccc1-3)C(=O)O` (centres unmarked) [Example 2-189, 2-[(12-cyclohexyl-6,7-dihydro-5-oxa-7a-azadibenzo[a,e]azulene-9-carbonyl)amino]-3-dimethylamino-2-methylpropionic acid] gave an IC50 of 100 to 1000 nM.
To `COc1ccc2c(c1)OCCn1c-2c(C2CCCCC2)c2ccc(C(=O)NC3(C(=O)Nc4ccc(S(=O)(=O)O)cc4)CCC3)cc21` [Example 2-523, 4-({1-[(12-cyclohexyl-3-methoxy-6,7-dihydro-5-oxa-7a-azadibenzo[a,e]azulene-9-carbonyl)amino]cyclobutanecarbonyl}amino)benzenesulfonic acid] belongs below 100 nM; to `CN(C)C(=O)CN1CCn2c(c(C3CCCCC3)c3ccc(C(=O)O)cc32)-c2ccccc21` [Example 1-21, 13-cyclohexyl-5-dimethylcarbamoylmethyl-6,7-dihydro-5H-benzo[5,6][1,4]diazepino[7,1-a]indole-10-carboxylic acid], below 100 nM; to `COCC[C@@H]1CCCN(CCN2CCn3c(c(C4CCCCC4)c4ccc(C(=O)O)cc43)-c3ccc(Cl)cc32)C1` [Example 1-397, 3-chloro-13-cyclohexyl-5-{2-[(S)-3-(2-methoxyethyl)piperidin-1-yl]ethyl}-6,7-dihydro-5H-benzo[5,6][1,4]diazepino[7,1-a]indole-10-carboxylic acid dihydrochloride], below 100 nM.
The compound `O=C(O)c1ccc2c(C3CCCCC3)c3n(c2c1)CCOc1c(-c2cccc(CO)c2)cccc1-3` [Example 2-302, 12-cyclohexyl-4-(3-hydroxymethylphenyl)-6,7-dihydro-5-oxa-7a-azadibenzo[a,e]azulene-9-carboxylic acid] had an IC50 below 100 nM.
In the case of `COC(=O)[C@H](Cc1ccc(OC)cc1)NC(=O)c1ccc2c(C3CCCCC3)c3n(c2c1)CCOc1ccccc1-3` [Example 2-218, methyl (S)-2-[(12-cyclohexyl-6,7-dihydro-5-oxa-7a-azadibenzo[a,e]azulene-9-carbonyl)amino]-3-(4-methoxyphenyl)propionate], the IC50 is below 100 nM.
In the case of `CCC1CCCCN1CCN1CCn2c(c(C3CCCCC3)c3ccc(C(=O)O)cc32)-c2ccc(Cl)cc21` (centres unmarked) [Example 1-334, 3-chloro-13-cyclohexyl-5-[2-(2-ethylpiperidin-1-yl)ethyl]-6,7-dihydro-5H-benzo[5,6][1,4]diazepino[7,1-a]indole-10-carboxylic acid dihydrochloride], the IC50 is below 100 nM.
Take `CC(C)COc1ccc2c(c1)N(CCN1CCCC(C)C1)CCn1c-2c(C2CCCCC2)c2ccc(C(=O)O)cc21` (centres unmarked) [Example 1-375, 13-cyclohexyl-3-isobutoxy-5-[2-(3-methylpiperidin-1-yl)ethyl]-6,7-dihydro-5H-benzo[5,6][1,4]diazepino[7,1-a]indole-10-carboxylic acid dihydrochloride]: the IC50 was below 100 nM.
Then `CCOc1ccc2c(c1)N(CCN1CCCOCC1)CCn1c-2c(C2CCCCC2)c2ccc(C(=O)O)cc21` [Example 1-500, 13-cyclohexyl-3-ethoxy-5-[2-(1,4-oxazepan-4-yl)ethyl]-6,7-dihydro-5H-benzo[5,6][1,4]diazepino[7,1-a]indole-10-carboxylic acid dihydrochloride], with below 100 nM.
To `COc1ccc2c(c1)OCCn1c-2c(C2CCCCC2)c2ccc(C(=O)NC3(C(=O)O)CCOCC3)cc21` [Example 2-400, 4-[(12-cyclohexyl-3-methoxy-6,7-dihydro-5-oxa-7a-azadibenzo[a,e]azulene-9-carbonyl)amino]tetrahydropyran-4-carboxylic acid] belongs below 100 nM; to `O=C(N[C@H]1CC[C@H](O)CC1)c1ccc2c(C3CCCCC3)c3n(c2c1)CCOc1ccccc1-3` [Example 2-166, N-(trans-4-hydroxycyclohexyl)-12-cyclohexyl-6,7-dihydro-5-oxa-7a-azadibenzo[a,e]azulene-9-carboxamide], below 100 nM.
Then `COc1ccc2c(c1)OCCn1c-2c(C2CCCCC2)c2ccc(C(=O)NC(C)(C)c3nc4ccccc4n3CCO)cc21` [Example 2-433, N-{1-[1-(2-hydroxyethyl)-1H-benzimidazol-2-yl]-1-methylethyl}-12-cyclohexyl-3-methoxy-6,7-dihydro-5-oxa-7a-azadibenzo[a,e]azulene-9-carboxamide], with below 100 nM.
The compound `COc1ccc2c(c1)OCCn1c-2c(C2CCCCC2)c2ccc(C(=O)N[C@@H](Cc3ccc(O)cc3)c3nc(=O)on3C)cc21` [Example 2-453, N—[(S)-2-(4-hydroxyphenyl)-1-(2-methyl-5-oxo-2,5-dihydro-1,2,4-oxadiazol-3-yl)ethyl]-12-cyclohexyl-3-methoxy-6,7-dihydro-5-oxa-7a-azadibenzo[a,e]azulene-9-carboxamide] gave an IC50 below 100 nM.
As to `CC1CCCCN1CCN1CCn2c(c(C3CCCCC3)c3ccc(C(=O)O)cc32)-c2ccccc21` (centres unmarked) [Example 1-156, 13-cyclohexyl-5-[2-(2-methylpiperidin-1-yl)ethyl]-6,7-dihydro-5H-benzo[5,6][1,4]diazepino[7,1-a]indole-10-carboxylic acid], the IC50 was below 100 nM.

In general, IC50 refers to the concentration at which inhibition is half-maximal. Higher therefore signals a need for much substance.
